Measurements from ChEMBL document CHEMBL5634123, “Design and synthesis of 1H-benzo[d]imidazole selective HDAC6 inhibitors with potential therapy for multiple myeloma” (Eur J Med Chem, 2023).
Calls of active or inactive are those of the source. No cut-off for these calls is given here.

Experiments:
Histone deacetylase 5 = Histone deacetylase 5 (Homo sapiens, UniProt Q9UQL6); experiment: Inhibition of HDAC5 (unknown origin) preincubated for 10 mins followed by substrate addition by fluorescence based assay
Histone deacetylase 5, sequence (Q9UQL6 whole entry): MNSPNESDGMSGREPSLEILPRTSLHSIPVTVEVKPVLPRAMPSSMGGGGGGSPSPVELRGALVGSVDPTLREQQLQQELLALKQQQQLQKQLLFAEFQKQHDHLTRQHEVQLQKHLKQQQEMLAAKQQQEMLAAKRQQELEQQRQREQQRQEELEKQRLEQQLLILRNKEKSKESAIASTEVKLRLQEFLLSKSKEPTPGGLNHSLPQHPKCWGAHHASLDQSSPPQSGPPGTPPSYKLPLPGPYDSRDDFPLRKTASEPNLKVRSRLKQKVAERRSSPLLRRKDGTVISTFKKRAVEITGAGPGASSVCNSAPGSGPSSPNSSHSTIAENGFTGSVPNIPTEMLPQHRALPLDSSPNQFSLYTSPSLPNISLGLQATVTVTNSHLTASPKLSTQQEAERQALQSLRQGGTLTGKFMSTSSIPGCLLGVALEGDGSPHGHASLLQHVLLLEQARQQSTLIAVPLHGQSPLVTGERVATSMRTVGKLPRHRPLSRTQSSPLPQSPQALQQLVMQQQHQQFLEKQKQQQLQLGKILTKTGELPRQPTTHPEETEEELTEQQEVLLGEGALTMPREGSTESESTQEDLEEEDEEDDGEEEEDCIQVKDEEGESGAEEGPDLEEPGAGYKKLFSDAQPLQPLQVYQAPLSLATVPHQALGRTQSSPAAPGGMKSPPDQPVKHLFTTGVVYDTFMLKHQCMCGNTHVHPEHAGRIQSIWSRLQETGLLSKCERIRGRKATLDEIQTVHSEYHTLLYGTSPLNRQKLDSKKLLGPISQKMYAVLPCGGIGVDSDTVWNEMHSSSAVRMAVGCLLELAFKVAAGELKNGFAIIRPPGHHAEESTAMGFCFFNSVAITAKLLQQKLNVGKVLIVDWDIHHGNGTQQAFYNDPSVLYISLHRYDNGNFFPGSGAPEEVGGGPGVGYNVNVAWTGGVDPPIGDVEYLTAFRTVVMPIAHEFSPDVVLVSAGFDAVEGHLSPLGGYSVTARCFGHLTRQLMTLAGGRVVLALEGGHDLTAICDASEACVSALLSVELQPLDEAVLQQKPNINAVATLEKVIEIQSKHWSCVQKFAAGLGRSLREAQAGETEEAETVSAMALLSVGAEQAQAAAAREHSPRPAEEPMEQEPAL

RPMI-8226 [1] = experiment: Induction of apoptosis in human RPMI-8226 cells assessed as early apoptotic cells at 2.5 uM incubated for 24 hrs by Annexin V-FITC/PI staining based flow cytometry (reference value: 5.34 %); type: functional
[2] = Half life in mouse at 10 mg/kg, po; type: ADME, organism-based; settings: in vivo
Histone deacetylase 7 = molecular target: T1, Histone deacetylase 7 (Homo sapiens, UniProt Q8WUI4); experiment: Inhibition of HDAC7 (unknown origin) preincubated for 10 mins followed by substrate addition by fluorescence based assay
T1 sequence (Q8WUI4 whole entry): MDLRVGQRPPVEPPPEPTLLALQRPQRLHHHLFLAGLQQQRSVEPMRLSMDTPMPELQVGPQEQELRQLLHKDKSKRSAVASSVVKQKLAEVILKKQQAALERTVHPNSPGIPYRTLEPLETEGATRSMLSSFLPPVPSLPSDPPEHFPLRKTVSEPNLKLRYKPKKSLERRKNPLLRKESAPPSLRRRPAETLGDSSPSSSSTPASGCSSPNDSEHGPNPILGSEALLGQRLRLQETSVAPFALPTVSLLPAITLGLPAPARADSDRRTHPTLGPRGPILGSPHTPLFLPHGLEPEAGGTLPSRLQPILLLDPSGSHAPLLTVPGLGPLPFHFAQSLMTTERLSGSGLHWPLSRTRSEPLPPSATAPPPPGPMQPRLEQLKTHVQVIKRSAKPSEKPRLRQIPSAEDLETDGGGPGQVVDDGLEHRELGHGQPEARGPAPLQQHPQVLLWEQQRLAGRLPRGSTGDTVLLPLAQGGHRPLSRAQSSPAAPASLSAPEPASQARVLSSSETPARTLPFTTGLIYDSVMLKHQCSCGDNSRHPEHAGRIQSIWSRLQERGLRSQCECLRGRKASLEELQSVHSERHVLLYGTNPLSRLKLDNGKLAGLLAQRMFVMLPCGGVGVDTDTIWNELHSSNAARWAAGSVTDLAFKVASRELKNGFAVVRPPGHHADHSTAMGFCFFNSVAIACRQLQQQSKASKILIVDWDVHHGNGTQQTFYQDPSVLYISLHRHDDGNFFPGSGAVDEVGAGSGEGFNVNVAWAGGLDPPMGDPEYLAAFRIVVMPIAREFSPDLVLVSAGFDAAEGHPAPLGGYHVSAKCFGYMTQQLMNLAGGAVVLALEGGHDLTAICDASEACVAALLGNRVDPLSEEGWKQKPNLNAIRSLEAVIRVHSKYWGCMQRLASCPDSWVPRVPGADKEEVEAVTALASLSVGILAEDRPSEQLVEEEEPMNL

RPMI-8226 [3] = experiment: Antitumor activity against human RPMI-8226 cells xenografted in Balb/c nude mouse assessed as reduction in tumor volume at 10 to 40 mg/kg, po qd for 21 days administered consecutively; type: functional, organism-based; settings: dose 10-40 mg/kg, time 21.0 day
RPMI-8226 [4] = experiment: Induction of apoptosis in human RPMI-8226 cells assessed as late apoptotic cells at 2.5 uM incubated for 24 hrs by Annexin V-FITC/PI staining based flow cytometry (reference value: 2.78 %); type: functional
RPMI-8226 [5] = experiment: Induction of apoptosis in human RPMI-8226 cells assessed as early apoptotic cells at 0.1 uM incubated for 24 hrs by Annexin V-FITC/PI staining based flow cytometry (reference value: 5.34 %); type: functional
RPMI-8226 [6] = experiment: Induction of apoptosis in human RPMI-8226 cells assessed as increase in p53 expression at 0.1 to 2.5 uM incubated for 24 hrs by Western blot analysis; type: functional, cell-based; settings: dose 0.1-2.5 µM
[7] = AUC (0 to t) in mouse at 1 mg/kg, iv; type: ADME, organism-based; settings: in vivo
RPMI-8226 [8] = experiment: Upregulation of Ac-H3 expression in human RPMI-8226 cells at 0.1 to 0.5 uM incubated for 24 hrs by Western blot analysis; type: functional, cell-based; settings: dose 0.1-0.5 µM
Histone deacetylase 9 = Histone deacetylase 9 (Homo sapiens, UniProt Q9UKV0); experiment: Inhibition of HDAC9 (unknown origin) preincubated for 10 mins followed by substrate addition by fluorescence based assay
Histone deacetylase 9, sequence (Q9UKV0 whole entry): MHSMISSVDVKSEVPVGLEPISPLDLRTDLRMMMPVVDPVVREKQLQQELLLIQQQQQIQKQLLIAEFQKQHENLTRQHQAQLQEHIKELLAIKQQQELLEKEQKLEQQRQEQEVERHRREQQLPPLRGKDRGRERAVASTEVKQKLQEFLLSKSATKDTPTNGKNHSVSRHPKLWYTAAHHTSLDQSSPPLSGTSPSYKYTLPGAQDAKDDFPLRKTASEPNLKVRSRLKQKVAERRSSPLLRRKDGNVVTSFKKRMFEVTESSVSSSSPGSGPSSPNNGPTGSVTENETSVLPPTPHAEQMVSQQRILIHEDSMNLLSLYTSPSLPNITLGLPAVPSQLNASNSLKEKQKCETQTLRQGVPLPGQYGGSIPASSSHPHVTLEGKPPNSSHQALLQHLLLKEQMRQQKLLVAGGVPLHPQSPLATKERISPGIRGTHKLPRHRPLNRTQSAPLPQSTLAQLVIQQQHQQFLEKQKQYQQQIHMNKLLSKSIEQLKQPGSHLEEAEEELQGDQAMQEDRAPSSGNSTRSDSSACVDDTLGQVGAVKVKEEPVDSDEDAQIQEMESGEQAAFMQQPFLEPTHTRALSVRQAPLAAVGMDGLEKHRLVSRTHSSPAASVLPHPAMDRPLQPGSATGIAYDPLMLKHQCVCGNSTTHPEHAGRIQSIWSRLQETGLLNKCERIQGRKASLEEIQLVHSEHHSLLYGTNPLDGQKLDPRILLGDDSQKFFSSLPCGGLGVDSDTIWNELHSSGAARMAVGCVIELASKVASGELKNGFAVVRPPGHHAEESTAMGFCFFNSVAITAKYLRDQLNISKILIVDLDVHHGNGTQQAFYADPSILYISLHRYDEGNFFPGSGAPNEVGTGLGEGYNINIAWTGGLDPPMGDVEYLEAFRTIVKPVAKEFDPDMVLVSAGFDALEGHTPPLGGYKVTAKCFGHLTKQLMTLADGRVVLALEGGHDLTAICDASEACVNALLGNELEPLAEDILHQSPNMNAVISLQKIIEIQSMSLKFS

[9] = Volume of distribution at steady state in mouse at 1 mg/kg, iv; type: ADME, organism-based; settings: in vivo, read-out: Vdss
RPMI-8226 [10] = experiment: Induction of apoptosis in human RPMI-8226 cells assessed as late apoptotic cells at 0.1 uM incubated for 24 hrs by Annexin V-FITC/PI staining based flow cytometry (reference value: 2.78 %); type: functional
RPMI-8226 [11] = experiment: Induction of apoptosis in human RPMI-8226 cells assessed as increase in caspase-3 expression at 0.1 to 2.5 uM incubated for 24 hrs by Western blot analysis; type: functional, cell-based; settings: dose 0.1-2.5 µM
Histone deacetylase 4 = Histone deacetylase 4 (Homo sapiens, UniProt P56524); experiment: Inhibition of HDAC4 (unknown origin) preincubated for 10 mins followed by substrate addition by fluorescence based assay
Histone deacetylase 4, sequence (P56524 whole entry): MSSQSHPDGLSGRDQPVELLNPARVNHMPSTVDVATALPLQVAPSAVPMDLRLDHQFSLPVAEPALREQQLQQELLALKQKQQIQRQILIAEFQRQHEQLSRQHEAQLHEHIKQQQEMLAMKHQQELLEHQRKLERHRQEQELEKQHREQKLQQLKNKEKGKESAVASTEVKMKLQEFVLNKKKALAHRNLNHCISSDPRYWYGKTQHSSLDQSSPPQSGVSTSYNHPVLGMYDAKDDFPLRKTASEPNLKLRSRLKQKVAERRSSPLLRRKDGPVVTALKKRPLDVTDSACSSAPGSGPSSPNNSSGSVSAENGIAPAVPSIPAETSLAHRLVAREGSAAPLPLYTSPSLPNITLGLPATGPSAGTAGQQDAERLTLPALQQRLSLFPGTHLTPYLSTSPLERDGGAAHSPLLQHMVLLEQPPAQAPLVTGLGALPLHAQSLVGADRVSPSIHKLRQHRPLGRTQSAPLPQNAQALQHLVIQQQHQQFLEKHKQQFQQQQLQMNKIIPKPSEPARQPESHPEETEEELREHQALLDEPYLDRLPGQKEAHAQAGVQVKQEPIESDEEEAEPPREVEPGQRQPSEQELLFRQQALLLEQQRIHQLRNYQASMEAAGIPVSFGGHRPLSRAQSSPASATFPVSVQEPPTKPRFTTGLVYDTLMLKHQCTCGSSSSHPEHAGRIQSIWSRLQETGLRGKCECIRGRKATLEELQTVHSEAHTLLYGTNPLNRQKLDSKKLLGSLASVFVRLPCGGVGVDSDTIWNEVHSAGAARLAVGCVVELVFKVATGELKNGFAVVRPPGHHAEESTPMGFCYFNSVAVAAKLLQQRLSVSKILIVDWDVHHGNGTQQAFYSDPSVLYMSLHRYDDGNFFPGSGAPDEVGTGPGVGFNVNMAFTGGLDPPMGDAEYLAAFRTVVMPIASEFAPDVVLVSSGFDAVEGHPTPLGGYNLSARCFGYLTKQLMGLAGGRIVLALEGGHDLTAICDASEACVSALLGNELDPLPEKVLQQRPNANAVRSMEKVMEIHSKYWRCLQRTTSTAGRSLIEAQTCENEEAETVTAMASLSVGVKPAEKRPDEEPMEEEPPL

Histone deacetylase 8 = molecular target: T2, Histone deacetylase 8 (Homo sapiens, UniProt Q9BY41); experiment: Inhibition of HDAC8 (unknown origin) preincubated for 10 mins followed by substrate addition by fluorescence based assay
T2 sequence (Q9BY41 whole entry): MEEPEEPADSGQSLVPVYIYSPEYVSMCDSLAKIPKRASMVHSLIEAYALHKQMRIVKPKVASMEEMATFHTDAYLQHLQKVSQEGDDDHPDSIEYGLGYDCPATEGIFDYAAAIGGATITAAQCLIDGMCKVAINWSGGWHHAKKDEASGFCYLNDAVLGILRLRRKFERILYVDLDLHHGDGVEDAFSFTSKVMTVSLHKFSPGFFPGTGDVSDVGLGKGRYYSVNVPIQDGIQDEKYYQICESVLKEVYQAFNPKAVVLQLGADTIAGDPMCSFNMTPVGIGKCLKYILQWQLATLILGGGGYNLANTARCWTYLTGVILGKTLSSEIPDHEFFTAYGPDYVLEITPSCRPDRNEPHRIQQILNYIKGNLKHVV

RPMI-8226 [12] = experiment: Induction of cell cycle arrest at S phase in human RPMI-8226 cells at 2.5 uM incubated for 24 hrs by PI staining based flow cytometry (reference value: 58.5 %); type: functional
RPMI-8226 [13] = experiment: Induction of cell cycle arrest at G1 phase in human RPMI-8226 cells at 0.5 uM incubated for 24 hrs by PI staining based flow cytometry (reference value: 19.2 %); type: functional
RPMI-8226 [14] = experiment: Induction of apoptosis in human RPMI-8226 cells assessed as late apoptotic cells at 0.5 uM incubated for 24 hrs by Annexin V-FITC/PI staining based flow cytometry (reference value: 2.78 %); type: functional
RPMI-8226 [15] = experiment: Induction of cell cycle arrest at G2 phase in human RPMI-8226 cells at 2.5 uM incubated for 24 hrs by PI staining based flow cytometry (reference value: 18.3 %); type: functional
RPMI-8226 [16] = experiment: Induction of apoptosis in human RPMI-8226 cells assessed as viable cells at 0.1 uM incubated for 24 hrs by Annexin V-FITC/PI staining based flow cytometry (reference value: 90.98 %); type: functional; settings: read-out: Activity

## Cn1c([C@@H](Cc2ccccc2)NCc2ccccc2)nc2cc(C(=O)NO)ccc21
Histone deacetylase 5
  IC50: 2120 nM
RPMI-8226 [1]
  Activity: 18.97%
[2]
  half-life: 20 min
Histone deacetylase 7
  IC50: 1230 nM
RPMI-8226 [3]
  Activity: Active
RPMI-8226 [4]
  Activity: 4.26%
RPMI-8226 [5]
  Activity: 12.79%
RPMI-8226 [6]
  Activity: Active
[7]
  AUC(0-t): 202 ng·h/mL
RPMI-8226 [8]
  Activity: inactive
Histone deacetylase 9
  IC50: 1880 nM
[9]
  Vd: 2.29 L/kg
RPMI-8226 [10]
  Activity: 4.28%
RPMI-8226 [11]
  Activity: Active
Histone deacetylase 4
  IC50: 1930 nM
Histone deacetylase 8
  IC50: 867 nM
RPMI-8226 [12]
  Activity: 39.8%
RPMI-8226 [13]
  Activity: 24.5%
RPMI-8226 [14]
  Activity: 4.24%
RPMI-8226 [15]
  Activity: 25.6%
RPMI-8226 [16]
  viability at 0.1 µM: 82.5%
